Entries after “also recorded” stand apart in the source; their conditions may differ.
How the values were obtained:
[1] = tested on: B16F1 transplanted pigmented melanoma; assay: BNCT: rate of tumour growth after thermal neutron irradiation in melanoma bearing mice; format: in vivo, C57/BL6 mice
Procedure: FIG. 7: Rate of tumour growth as a function of post-irradiation time in C57/BL6 mice bearing a B16F1 transplanted pigmented melanoma which have been intravenously injected with 6.0 mg/kg boronated phthalocyanine prepared according to Example 23, as a DOPC liposomal preparation, and at 24 hours from injection were irradiated by thermal neutrons for 20 and 30 min. The growth profile of the radiosensitized pigmented melanoma is compared with that obtained for untreated control mice.

[2] = Photostability (photobleaching) under visible light irradiation, spectrophotometric; format: physicochemical; settings: irradiated as for FIG. 1; compared with not-boronated (unsubstituted zinc) phthalocyanine
Excerpt: FIG. 2A: Absorption spectrum and determination of the degraded unsubstituted zinc phthalocyanine, irradiated according to the experimental conditions described above for FIG. 1.
It is known that most phthalocyanines are subjected to a more or less extensive photobleaching under visible light irradiation. It is therefore important to define if the rate constant of this process is too fast, so that the active principle is photodegraded at a high rate, which could negatively interfere with the photosensitization of cells or other substrates. […] Results obtained with a not substituted phthalocyanine are reported. In FIG. 2A as a reference. From comparison of the plots shown in FIGS. 2A and 2B it may be concluded that • 1- the boron substituted molecules prepared according to the present invention are as useful photosensitizers able to absorb red visible light as the unsubstituted ones; • 2- the photobleaching kinetics undergoes only limited changes when the phthalocyanine structure is modified by introduction of boronated groups. […] Assessment of Activity on Biological Substrates

[3] = tested on: melanocytes deriving from murine pigmented melanoma B16-F1; assay: Photosensitization of B16-F1 melanocytes, survival by Trypan Blue exclusion test; format: cell-based; settings: 24 hrs incubation, DPPC or DOPC liposomal preparation 7 microM; red light 600-750 nm, 50 mW/cm^2; irradiation times as low as 10 min
Procedure: Irradiations were performed as described above for FIG. 1.
Melanocytes were incubated (24 hrs) with a DPCC or DOPC liposomal phthalocyanine preparation (7 microM). After incubation, the cells were washed with PBS and irradiated with red visible light (600-750 nm, 50 mW/cm^2). Survival was determined after the photo-treatment (18-24 hrs) by the Trypan Blue exclusion test. Results for delivered phthalocyanine are summarised in FIG. 3A (DPPC liposomes) and in FIG. 3B (DOPC liposomes).

[4] = Pharmacokinetics and tissue distribution in B16-F1 pigmented melanoma bearing mice; format: in vivo, C57/BL6 mice
Procedure: Toward this aim, once tumours had reached the volumes of […], the boronated phthalocyanine as DPPC liposomal preparation (0.75 mg/kg) or as a DOPC liposomal preparation (3 mg/kg) was systemically administered. […]

[5] = tested on: B16F1 transplanted pigmented melanoma; assay: PDT: rate of tumour growth after red light irradiation in melanoma bearing mice; format: in vivo, C57/BL6 mice
Procedure: The tumour response is most evident if the irradiations are carried out at 3 h after injection of the photosensitizer.

Row | Substance | tumour necrosis after BNCT ([1]; 6.0 mg/kg i.v. in DOPC liposomes, thermal neutrons at 24 h) | tumour growth after BNCT ([1]; 6.0 mg/kg i.v. in DOPC liposomes, thermal neutrons at 24 h for 20 and 30 min, versus untreated control mice) | amount of phthalocyanine accumulated in the tumour ([1]; 24 h after i.v. injection in DOPC liposomes) | photobleaching [2] | cell survival after photo-treatment [3] | clearance from plasma ([4]; DPPC liposomes 0.75 mg/kg or DOPC liposomes 3 mg/kg, systemically administered) | clearance from liver and spleen ([4]; delivered via DOPC liposomes, after 1 week from injection) | recovery from liver and spleen ([4]; delivered via liposomes) | amount found in the skin (peritumoural tissue) ([4]; mouse, in vivo) | recovery from the kidneys ([4]; mouse, in vivo) | rate of tumour growth after PDT ([5]; 6.0 mg/kg i.v., DOPC liposomal preparation, 670 nm, 200 mW/cm^2, 250 J/cm^2) | tumour response by interval between injection and irradiation ([5]; irradiations carried out at 3 h after injection of the photosensitizer)
1 | 1,8(11),15(18),22(25)-tetrakis-{[4-(^10B-o-carboran-1-yl)methyl]phenoxy}phthalocyaninate zinc(II) [Example 23] | extensive tumour necrosis | significant delay in tumour growth | sufficient to achieve the BNCT effect |  |  |  |  |  |  |  |  | 
2 | 1,8(11),15(18),22(25)-tetrakis-{[4-(^11B-o-carboran-1-yl)methyl]phenoxy}-phthalocyaninate zinc(II) [Example 21] |  |  |  | more extensive photobleaching | almost complete cell mortality | rapid with no product residue at 24 hrs after the treatment | largely cleared | large recovery; also recorded: accumulated in large amounts | small amounts | Very limited amounts | significant delay in the rate of tumour growth | most evident
